# Paper PMC11233931, “Remodeling tumor‐associated macrophage for anti‐cancer effects by rational design of irreversible inhibition of mitogen‐activated protein kinase‐activated protein kinase 2” (MedComm, 2024)
# What was measured:
# Assay in all cases: Eurofins kinase selectivity profile against 380 other human recombinant kinases (Table S2)
# Assay type in all cases: biochemical
# [1] = molecular target: T1, 380 human recombinant protein kinases (Homo sapiens, UniProt Q15418); details: Rsk1(h), read-out: Inhibition rate
# T1 construct: purchased Eurofins (Celle Lévescault)
# In short: (§1)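 To gauge specificity for MK2, the compound is profiled externally at various concentrations on recombinant human kinases, 380 in total.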
# [2] = molecular target: T2, 380 human recombinant protein kinases (Homo sapiens, UniProt Q16566); details: CaMKIV(h), read-out: Inhibition rate
# T2 construct: purchased Eurofins (Celle Lévescault)
# T2 sequence (Q16566 1-473): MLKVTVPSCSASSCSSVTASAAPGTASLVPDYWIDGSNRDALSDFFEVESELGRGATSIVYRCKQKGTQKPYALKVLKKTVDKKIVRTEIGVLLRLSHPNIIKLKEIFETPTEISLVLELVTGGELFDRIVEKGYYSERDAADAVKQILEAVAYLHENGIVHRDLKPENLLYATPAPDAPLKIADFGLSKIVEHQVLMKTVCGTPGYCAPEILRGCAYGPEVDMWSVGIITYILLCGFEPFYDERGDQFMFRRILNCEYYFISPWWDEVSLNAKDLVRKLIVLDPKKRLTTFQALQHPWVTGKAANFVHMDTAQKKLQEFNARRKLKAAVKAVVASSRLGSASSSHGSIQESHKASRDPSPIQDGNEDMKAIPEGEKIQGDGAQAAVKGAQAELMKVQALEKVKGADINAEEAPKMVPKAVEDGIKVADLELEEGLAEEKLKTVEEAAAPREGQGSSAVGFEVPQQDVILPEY
# In short: as §1
# [3] = molecular target: T3, 380 human recombinant protein kinases (Homo sapiens, UniProt Q86UE8); details: TLK2(h), read-out: Inhibition rate (%)
# T3 construct: purchased Eurofins (Celle Lévescault)
# In short: as §1
# [4] = molecular target: T4, 380 human recombinant protein kinases (Homo sapiens, UniProt Q8IU85); details: CaMKIδ(h), read-out: Inhibition rate
# T4 construct: purchased Eurofins (Celle Lévescault)
# In short: as §1
# [5] = molecular target: T5, 380 human recombinant protein kinases (Homo sapiens, UniProt Q8IVW4); details: CDKL3(h), read-out: Inhibition rate
# T5 construct: purchased Eurofins (Celle Lévescault)
# In short: as §1
# [6] = molecular target: T6, 380 human recombinant protein kinases (Homo sapiens, UniProt Q9BQI3); details: HRI(h), read-out: Inhibition rate
# T6 construct: purchased Eurofins (Celle Lévescault)
# In short: as §1
# [7] = molecular target: T7, 380 human recombinant protein kinases (Homo sapiens, UniProt Q9HCP0); details: CK1γ1(h), read-out: Inhibition rate
# T7 construct: purchased Eurofins (Celle Lévescault)
# In short: as §1
# [8] = molecular target: T8, 380 human recombinant protein kinases (Homo sapiens, UniProt Q9NRH2); details: SNRK(h), read-out: Inhibition rate (%)
# T8 construct: purchased Eurofins (Celle Lévescault)
# T8 sequence (Q9NRH2 1-765): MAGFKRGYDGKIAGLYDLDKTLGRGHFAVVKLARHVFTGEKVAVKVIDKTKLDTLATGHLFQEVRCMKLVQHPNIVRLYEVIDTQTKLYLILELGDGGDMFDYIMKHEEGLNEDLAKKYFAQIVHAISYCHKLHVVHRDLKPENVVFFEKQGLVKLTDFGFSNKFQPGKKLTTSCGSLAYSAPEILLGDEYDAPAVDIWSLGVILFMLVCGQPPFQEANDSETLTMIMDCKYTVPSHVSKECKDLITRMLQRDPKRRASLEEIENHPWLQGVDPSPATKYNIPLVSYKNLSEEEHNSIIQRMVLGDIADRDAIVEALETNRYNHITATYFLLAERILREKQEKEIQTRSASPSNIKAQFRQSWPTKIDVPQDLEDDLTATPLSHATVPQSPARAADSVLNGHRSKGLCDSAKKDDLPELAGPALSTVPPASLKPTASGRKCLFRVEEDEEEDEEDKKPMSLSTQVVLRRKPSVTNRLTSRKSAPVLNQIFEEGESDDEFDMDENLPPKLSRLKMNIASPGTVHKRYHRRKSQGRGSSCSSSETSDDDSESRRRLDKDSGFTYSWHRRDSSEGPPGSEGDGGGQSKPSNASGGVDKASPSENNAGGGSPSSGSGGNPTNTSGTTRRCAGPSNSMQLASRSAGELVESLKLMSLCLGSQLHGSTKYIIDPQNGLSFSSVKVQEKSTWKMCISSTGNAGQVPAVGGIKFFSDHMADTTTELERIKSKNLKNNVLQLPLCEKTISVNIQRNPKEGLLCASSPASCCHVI
# In short: as §1
# T6 sequence (Q9BQI3 whole entry): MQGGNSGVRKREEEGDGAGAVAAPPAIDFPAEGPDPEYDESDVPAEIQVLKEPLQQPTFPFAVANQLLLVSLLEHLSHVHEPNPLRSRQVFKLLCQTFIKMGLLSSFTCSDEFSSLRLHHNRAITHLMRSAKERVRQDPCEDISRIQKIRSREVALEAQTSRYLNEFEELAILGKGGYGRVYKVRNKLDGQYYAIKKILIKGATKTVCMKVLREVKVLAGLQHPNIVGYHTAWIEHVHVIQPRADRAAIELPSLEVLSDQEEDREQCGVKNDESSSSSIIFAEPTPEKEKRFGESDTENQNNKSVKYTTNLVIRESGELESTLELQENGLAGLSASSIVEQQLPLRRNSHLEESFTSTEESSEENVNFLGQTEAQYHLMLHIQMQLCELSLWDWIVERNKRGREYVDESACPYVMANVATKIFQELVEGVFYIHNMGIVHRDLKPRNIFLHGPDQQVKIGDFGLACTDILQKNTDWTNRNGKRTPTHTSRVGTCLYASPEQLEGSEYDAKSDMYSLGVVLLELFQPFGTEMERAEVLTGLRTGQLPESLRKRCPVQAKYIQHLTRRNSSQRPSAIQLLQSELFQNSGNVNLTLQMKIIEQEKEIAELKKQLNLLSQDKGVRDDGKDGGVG
# T1 sequence (Q15418 whole entry): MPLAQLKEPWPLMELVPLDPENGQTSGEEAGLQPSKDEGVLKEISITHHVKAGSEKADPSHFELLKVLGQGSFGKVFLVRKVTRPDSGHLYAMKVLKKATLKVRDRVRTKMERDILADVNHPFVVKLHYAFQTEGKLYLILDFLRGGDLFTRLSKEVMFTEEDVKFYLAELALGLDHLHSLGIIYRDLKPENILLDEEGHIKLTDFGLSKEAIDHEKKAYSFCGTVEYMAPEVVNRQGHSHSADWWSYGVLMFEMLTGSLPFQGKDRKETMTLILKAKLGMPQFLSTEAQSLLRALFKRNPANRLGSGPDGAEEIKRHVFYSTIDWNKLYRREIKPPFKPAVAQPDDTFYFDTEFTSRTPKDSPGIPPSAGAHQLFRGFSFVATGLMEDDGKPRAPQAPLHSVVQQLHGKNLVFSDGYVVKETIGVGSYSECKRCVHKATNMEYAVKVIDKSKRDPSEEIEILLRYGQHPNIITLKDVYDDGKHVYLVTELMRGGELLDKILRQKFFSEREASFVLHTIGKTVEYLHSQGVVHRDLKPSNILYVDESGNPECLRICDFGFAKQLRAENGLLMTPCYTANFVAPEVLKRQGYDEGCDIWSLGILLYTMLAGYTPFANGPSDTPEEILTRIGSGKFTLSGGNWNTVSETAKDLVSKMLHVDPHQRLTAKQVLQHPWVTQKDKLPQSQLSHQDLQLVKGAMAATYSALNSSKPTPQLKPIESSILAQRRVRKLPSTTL
# T5 sequence (Q8IVW4 whole entry): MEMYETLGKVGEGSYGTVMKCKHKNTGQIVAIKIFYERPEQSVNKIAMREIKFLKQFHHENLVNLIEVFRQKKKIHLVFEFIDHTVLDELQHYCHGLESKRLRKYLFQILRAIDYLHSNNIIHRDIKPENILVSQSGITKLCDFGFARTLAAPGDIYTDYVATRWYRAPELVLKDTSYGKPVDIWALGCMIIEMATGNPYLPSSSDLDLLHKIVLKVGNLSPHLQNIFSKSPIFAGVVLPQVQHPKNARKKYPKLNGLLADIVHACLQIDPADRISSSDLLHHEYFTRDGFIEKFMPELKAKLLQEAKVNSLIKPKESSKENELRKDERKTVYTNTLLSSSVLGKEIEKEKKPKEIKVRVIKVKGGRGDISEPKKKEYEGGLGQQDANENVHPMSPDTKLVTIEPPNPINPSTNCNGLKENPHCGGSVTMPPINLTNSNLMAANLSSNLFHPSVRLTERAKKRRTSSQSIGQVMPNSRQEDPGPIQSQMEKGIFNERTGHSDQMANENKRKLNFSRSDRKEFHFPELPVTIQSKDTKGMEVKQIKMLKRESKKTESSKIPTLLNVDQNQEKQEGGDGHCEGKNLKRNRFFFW
# T4 sequence (Q8IU85 whole entry): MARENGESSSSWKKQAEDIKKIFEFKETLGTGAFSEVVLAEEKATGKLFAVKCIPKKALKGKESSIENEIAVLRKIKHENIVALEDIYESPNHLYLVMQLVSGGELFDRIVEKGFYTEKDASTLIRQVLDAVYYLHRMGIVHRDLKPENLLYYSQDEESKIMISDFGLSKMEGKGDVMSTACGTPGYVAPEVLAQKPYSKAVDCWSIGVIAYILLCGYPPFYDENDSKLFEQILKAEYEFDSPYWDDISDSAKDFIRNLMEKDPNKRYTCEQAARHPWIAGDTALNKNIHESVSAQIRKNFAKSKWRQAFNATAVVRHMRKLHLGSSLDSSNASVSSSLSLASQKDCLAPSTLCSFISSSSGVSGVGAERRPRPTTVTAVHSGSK
# T7 sequence (Q9HCP0 whole entry): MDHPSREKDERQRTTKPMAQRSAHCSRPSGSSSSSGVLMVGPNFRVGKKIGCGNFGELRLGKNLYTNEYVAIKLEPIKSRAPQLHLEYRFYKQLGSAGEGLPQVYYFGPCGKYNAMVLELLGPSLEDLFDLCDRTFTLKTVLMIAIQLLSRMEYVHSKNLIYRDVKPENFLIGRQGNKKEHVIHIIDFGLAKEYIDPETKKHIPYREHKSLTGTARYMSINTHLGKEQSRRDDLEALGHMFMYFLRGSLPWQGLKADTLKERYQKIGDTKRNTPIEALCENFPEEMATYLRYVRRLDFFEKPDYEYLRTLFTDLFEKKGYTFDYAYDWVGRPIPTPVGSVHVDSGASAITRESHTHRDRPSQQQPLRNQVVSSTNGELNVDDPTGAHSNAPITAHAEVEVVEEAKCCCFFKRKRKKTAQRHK
# T3 sequence (Q86UE8 whole entry): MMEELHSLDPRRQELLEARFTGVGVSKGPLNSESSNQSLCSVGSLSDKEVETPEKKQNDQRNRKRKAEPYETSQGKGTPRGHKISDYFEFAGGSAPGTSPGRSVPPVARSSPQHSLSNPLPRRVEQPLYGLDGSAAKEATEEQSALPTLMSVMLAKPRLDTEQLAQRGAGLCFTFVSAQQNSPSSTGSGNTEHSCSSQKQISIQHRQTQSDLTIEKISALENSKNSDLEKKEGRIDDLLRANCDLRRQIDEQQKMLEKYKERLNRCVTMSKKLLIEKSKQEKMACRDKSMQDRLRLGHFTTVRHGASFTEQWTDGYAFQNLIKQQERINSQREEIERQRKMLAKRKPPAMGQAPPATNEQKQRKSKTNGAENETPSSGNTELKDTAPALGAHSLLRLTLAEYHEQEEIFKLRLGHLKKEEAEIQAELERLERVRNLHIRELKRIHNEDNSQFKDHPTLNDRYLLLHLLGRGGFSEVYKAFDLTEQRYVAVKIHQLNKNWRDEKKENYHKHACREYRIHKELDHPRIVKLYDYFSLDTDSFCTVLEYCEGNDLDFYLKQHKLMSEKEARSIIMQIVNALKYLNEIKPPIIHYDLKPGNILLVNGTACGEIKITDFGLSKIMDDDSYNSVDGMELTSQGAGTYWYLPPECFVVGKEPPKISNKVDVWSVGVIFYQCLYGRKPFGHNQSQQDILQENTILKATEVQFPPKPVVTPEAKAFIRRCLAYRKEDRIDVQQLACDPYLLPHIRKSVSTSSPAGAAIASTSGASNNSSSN
smiles,measurement,setting,value
C=CC(=O)Nc1cc(-c2cc(-c3cc4c([nH]3)CCNC4=O)ccn2)ccc1OC(F)(F)F [compound 11],inhibition at 0.01 µM,[1]; 10 nM,-2%
same,inhibition at 0.1 µM,[1]; 100 nM,-3%
same,inhibition at 1 µM,[1]; 1000 nM,-7%
same,inhibition at 0.01 µM,[2]; 10 nM,9%
same,inhibition at 0.1 µM,[2]; 100 nM,8%
same,inhibition at 1 µM,[2]; 1000 nM,6%
same,inhibition at 0.01 µM,[3]; 10 nM,13%
same,inhibition at 0.1 µM,[3]; 100 nM,1%
same,inhibition at 1 µM,[3]; 1000 nM,-2%
same,inhibition at 0.01 µM,[4]; 10 nM,-3%
same,inhibition at 0.1 µM,[4]; 100 nM,-6%
same,inhibition at 1 µM,[4]; 1000 nM,1%
same,inhibition at 0.01 µM,[5]; 10 nM,52%
same,inhibition at 0.1 µM,[5]; 100 nM,88%
same,inhibition at 1 µM,[5]; 1000 nM,99%
same,inhibition at 0.01 µM,[6]; 10 nM,-3%
same,inhibition at 0.1 µM,[6]; 100 nM,4%
same,inhibition at 1 µM,[6]; 1000 nM,7%
same,inhibition at 0.01 µM,[7]; 10 nM,0%
same,inhibition at 0.1 µM,[7]; 100 nM,14%
same,inhibition at 1 µM,[7]; 1000 nM,56%
same,inhibition at 0.01 µM,[8]; 10 nM,4%
same,inhibition at 0.1 µM,[8]; 100 nM,4%
same,inhibition at 1 µM,[8]; 1000 nM,9%
